Values of other authors in US9308212B2, “Compositions comprising alprazolam for treating primary insomnia and insomnia associated with anxiety states and process for preparing them” (LABORATORIOS BAGO S.A., priority 2008, dated 2016).

CO[C@@H]1[C@@H](OC(N)=O)[C@@H](O)[C@H](Oc2ccc3c(O)c(NC(=O)c4ccc(O)c(CC=C(C)C)c4)c(=O)oc3c2C)OC1(C)C [amorphous novobiocine, novobiocine]
Solubility of the amorphous form relative to the crystalline form: 10 times
